Data from patent EP0429304A2, “Pyridone-carboxylic acid derivatives and their use as veterinary medicines” (SHIONOGI SEIYAKU KABUSHIKI KAISHA trading under the name of …, priority 1989, dated 1991).
Read-outs that look alike come from different tables or passages of the source.

Legend:
[1] = test system: Escherichia coli (E.coli) E-17, chicken-origin strain isolated from the field; assay: In vitro sensitivity test (agar dilution method); assay type: cell-based; conditions: 37°C, 20 to 24 hours
Experimental: (§1) Survey of the sensitivity of the compound (I) to various strains of microorganisms was performed by a liquid dilution method […] an agar dilution method, in which the bacteria used were of animal origin and included the following strains (15 strains out of 11 bacteria): Chicken-origin strain: Mycoplasma gallisepticum (MG), Mycoplasma synoviae (MS), Hemophilus paragallinarum (H.pg) and Escherichia coli (E.coli); Pig-origin strain: Mycoplasma hyopneumoniae (Mh), Hemophilus pleuropneumonia (H.pp) and Bordetella bronchiseptica (B.br); Fish-origin strain: Pasteurella piscicida (P.pis) and Streptococcus sp (Str.sp); others: Escherichia coli (E. coli), Salmonella typhimurium (S.typhi) and Staphylococcus aureus (S.au).
(§2) Of these bacteria, the strains belonging to MG, MS and Mh were cultured at 37°C for 7 days by a liquid dilution method, of which the culture medium comprised: 12 % horse-serum added "PPLO" (agar manufactured by Difco) medium for MG; 12 % pig-serum, 0.01 % βNAD (nicotinamide adenine dinucleotide) added Frey medium for MS; 0.5 % lactoalbumin added Hank's solution, 10 % horse-serum, 0.5 % yeast extract (25 %) for Mh, and the agar dilution method was applied to the strains belonging to H.pg, H.pp, S.typhi, E.coli, S.au and B.br. Specifically, the H.pg strain was cultured in a 5 % chicken-serum added chicken bouillon medium and the H.pp strain was cultured in a heart infusion agar added with 10 % sheep defibered blood and 0.05 % βNAD. In case of the H.pg and P.pp strains, observation was made after cultivation at 37°C for 20 hours under 10 % CO₂. Mueller Hinton agar (Difco) was used for the strains belonging to S.typhi, E.coli, S.au and B.br, and observation was made after cultivation at 37°C for 20 to 24 hours. P.pis and Str.sp, both being of fish-origin, were respectively cultured at 25°C for 40 to 48 hours in a 1.5 % NaCl added heart infusion agar and in a sensitive disk medium.

[2] = test system: Hemophilus paragallinarum (H.pg) S-1; assay: In vitro sensitivity test (agar dilution method); assay type: cell-based
Experimental: as §1, §2

[3] = test system: Hemophilus pleuropneumonia (H.pp) M-1; assay: In vitro sensitivity test (agar dilution method); assay type: cell-based; conditions: 37°C, 20 hours, 10 % CO₂
Experimental: as §1, §2

[4] = test system: Bordetella bronchiseptica (B.br) ABU-1; assay: In vitro sensitivity test (agar dilution method); assay type: cell-based; conditions: 37°C, 20 to 24 hours
Experimental: as §1, §2

[5] = test system: Salmonella typhimurium (S.typhi) 13311; assay: In vitro sensitivity test (agar dilution method); assay type: cell-based; conditions: 37°C, 20 to 24 hours
Experimental: as §1, §2

[6] = test system: Hemophilus paragallinarum (H.pg) 221; assay: In vitro sensitivity test (agar dilution method); assay type: cell-based
Experimental: as §1, §2

[7] = test system: Escherichia coli (E.coli) JC-2; assay: In vitro sensitivity test (agar dilution method); assay type: cell-based; conditions: 37°C, 20 to 24 hours
Experimental: as §1, §2

[8] = test system: Staphylococcus aureus (S.au) 209P; assay: In vitro sensitivity test (agar dilution method); assay type: cell-based; conditions: 37°C, 20 to 24 hours
Experimental: as §1, §2

[9] = test system: Mycoplasma gallisepticum (MG) T-7-T, TS-resistant strain isolated from the field; assay: In vitro sensitivity test (liquid dilution method); assay type: cell-based; conditions: 37°C, 7 days
Experimental: as §1, §2

[10] = test system: Mycoplasma hyopneumoniae (Mh) ST-11; assay: In vitro sensitivity test (liquid dilution method); assay type: cell-based; conditions: 37°C, 7 days
Experimental: as §1, §2

[11] = test system: Mycoplasma gallisepticum (MG) S6; assay: In vitro sensitivity test (liquid dilution method); assay type: cell-based; conditions: 37°C, 7 days
Experimental: as §1, §2

[12] = test system: TS-resistant strain of MG; assay type: in vivo, chicken; conditions: for Infectious index Left air sack + / Infectious index Left air sack ++ / Infectious index Left air sack +++ / Infectious index Left air sack - / Infectious index Right air sack + / Infectious index Right air sack ++ / Infectious index Right air sack +++ / Infectious index Right air sack -: count of fowl; for Infectious index Left air sack + / Infectious index Left air sack ++ / Infectious index Left air sack +++ / Infectious index Left air sack - / Infectious index Right air sack + / Infectious index Right air sack ++ / Infectious index Right air sack +++ / Infectious index Right air sack - / Number of fowl having air sack lesions: 10-days chicken, 3.0 x 10³ CFU/fowl; for Number of infected fowl/Number of fowl tested: 9-days chicken, 3.5 x 10³ CFU/fowl
[13] = test system: Streptococcus sp (Str.sp) SNO6119; assay: In vitro sensitivity test; assay type: cell-based; conditions: 25°C, 40 to 48 hours
Experimental: as §1, §2

[14] = test system: Pasteurella piscicida (P.pis) No. 2; assay: In vitro sensitivity test; assay type: cell-based; conditions: 25°C, 40 to 48 hours
Experimental: as §1, §2

[15] = test system: H.pp (otherwise called Actinobacillus pleuropneumoniae) strain M-1; assay: Experimental H.pp infection to pig, through injection; assay type: in vivo; conditions: injection to thigh muscle one time, Dose 5 mg/kg; dissection 6 days after inoculation
Experimental: In these experiments, the compound (I) was applied to the designated animals by (1) oral administration, (2) incorporation into baits and (3) intramuscular injection, the details of which are explained below.
(3) Preparation of the MG infected fowls was performed in the same manner as in (1) above. Infection of H.pp (otherwise called Actinobacillus pleuropneumoniae) to cause pleuropneumonia in pig was performed by inoculating 5 ml of a fresh cultured strain (i.e. M-1) of H.pp to each nasopharyngeal of some 45 days pigs, each weighing 4 to 9 kg (4 to 5 pigs/group), followed by injection of the test compounds to each thigh muscle at a designated volume one time. Pigs were dissected 6 days after the inoculation. The evaluation of the antimicrobial activity was made by observation of the pneumonia symptomes in air sacs, number of dead body and degree of nodosity in air sacks on dissection.

TS-resistant MG = assay: Experimental MG infection to chicken, through bait; assay type: in vivo; conditions: 9-days chicken, 6.6 x 10³ CFU/fowl, dissection 6th day after inoculation
[16] = agar dilution, 37°C, 20 hours, 10 % CO₂

Compound	In vitro Sensitivity Test E.coli E-17 [1] [µg/ml]	In vitro Sensitivity Test H.pp M-1 [3] [µg/mL]	In vitro Sensitivity Test B.br ABU-1 [4] [µg/mL]	In vitro Sensitivity Test S.typhi 13311 [5] [µg/mL]	In vitro Sensitivity Test E.coli JC-2 [7] [µg/mL]	In vitro Sensitivity Test S.au 209P [8] [µg/mL]	In vitro Sensitivity Test MG T-7-T [9] [µg/mL]	In vitro Sensitivity Test Mh ST-11 [10] [µg/mL]	In vitro Sensitivity Test MG S6 [11] [µg/mL]	Infectious index Left air sack + ([12]; oral 3.13 mg/kg)	Infectious index Left air sack ++ ([12]; oral 3.13 mg/kg)	Infectious index Left air sack +++ ([12]; oral 3.13 mg/kg)	Infectious index Left air sack - ([12]; oral 3.13 mg/kg)	Infectious index Right air sack + ([12]; oral 3.13 mg/kg)	Infectious index Right air sack ++ ([12]; oral 3.13 mg/kg)	Infectious index Right air sack +++ ([12]; oral 3.13 mg/kg)	Infectious index Right air sack - ([12]; oral 3.13 mg/kg)	Infectious index Left air sack + ([12]; oral 6.25 mg/kg)	In vitro Sensitivity Test Str.sp SNO6119 [13] [µg/mL]	In vitro Sensitivity Test P.pis No. 2 [14] [µg/mL]	further results
CN[C@@H]1CCC[C@H]2[C@@H]1CCN2c1c(F)cc2c(=O)c(C(=O)O)cn(C3CC3)c2c1F (relative stereo) [I-3]	0.1	0.2	6.25	0.1	0.1	0.2	0.05	0.05	0.025	0	1	0	4	0	3	0	2	0	0.78	1.56	In vitro Sensitivity Test H.pg S-1 [2]: 1.56 µg/mL; In vitro Sensitivity Test H.pg 221 [6]: 1.56 µg/mL; Infectious index Left air sack ++ ([12]; oral 6.25 mg/kg): 0; Infectious index Left air sack +++ ([12]; oral 6.25 mg/kg): 0; Infectious index Left air sack - ([12]; oral 6.25 mg/kg): 5; Infectious index Right air sack + ([12]; oral 6.25 mg/kg): 2; Infectious index Right air sack ++ ([12]; oral 6.25 mg/kg): 3; Infectious index Right air sack +++ ([12]; oral 6.25 mg/kg): 0; Infectious index Right air sack - ([12]; oral 6.25 mg/kg): 0; Infectious index Left air sack + ([12]; oral 12.5 mg/kg): 1; Infectious index Left air sack ++ ([12]; oral 12.5 mg/kg): 0; Infectious index Left air sack +++ ([12]; oral 12.5 mg/kg): 0; Infectious index Left air sack - ([12]; oral 12.5 mg/kg): 4; Infectious index Right air sack + ([12]; oral 12.5 mg/kg): 2; Infectious index Right air sack ++ ([12]; oral 12.5 mg/kg): 1; Infectious index Right air sack +++ ([12]; oral 12.5 mg/kg): 0; Infectious index Right air sack - ([12]; oral 12.5 mg/kg): 2; Number of fowl having air sack lesions ([12]; oral 3.13 mg/kg): 3; Number of fowl having air sack lesions ([12]; oral 6.25 mg/kg): 5; Number of fowl having air sack lesions ([12]; oral 12.5 mg/kg): 3
CCNCC12CCCC1CN(c1c(F)cc3c(=O)c(C(=O)O)cn(CC)c3c1F)C2.Cl (centres unmarked) [I-23]	–	0.78	–	1.56	0.78	0.1	–	0.78	0.0125	–	–	–	–	–	–	–	–	–	0.39	0.78	Number of pig having nodi/Number of pig tested [15]: 2/4; Number of infected fowl/Number of fowl tested (TS-resistant MG; bait 31.3 ppm/Day): 5/7; Number of infected fowl/Number of fowl tested (TS-resistant MG; bait 62.5 ppm/Day): 0/7; Number of infected fowl/Number of fowl tested (TS-resistant MG; bait 125 ppm/Day): 0/7; Number of infected fowl/Number of fowl tested ([12]; oral 1.56 mg/kg): 5/5; Number of infected fowl/Number of fowl tested ([12]; oral 3.13 mg/kg): 5/5; Number of infected fowl/Number of fowl tested ([12]; oral 6.25 mg/kg): 0/5
CN[C@H]1CCC[C@H]2CN(c3c(F)cc4c(=O)c(C(=O)O)cn(C5CC5)c4c3F)CC[C@H]21.Cl (relative stereo) [I-7, 1-cyclopropyl-6,8-difluoro-7-[(1R*,6R*,7S*)-7-methylamino-3-azabicyclo[4.4.0]decan-3-yl]-1,4-dihydro-4-oxo-3-quinolinecarboxylic acid hydrochloride]	0.39	0.78	6.25	0.2	0.39	0.78	0.2	0.1	0.05	0	0	0	5	0	3	1	1	1	3.13	6.25	In vitro Sensitivity Test H.pg S-1 [2, 16]: >3.13 µg/mL; In vitro Sensitivity Test H.pg 221 [6, 16]: >3.13 µg/mL; Infectious index Left air sack ++ ([12]; oral 6.25 mg/kg): 0; Infectious index Left air sack +++ ([12]; oral 6.25 mg/kg): 0; Infectious index Left air sack - ([12]; oral 6.25 mg/kg): 5; Infectious index Right air sack + ([12]; oral 6.25 mg/kg): 1; Infectious index Right air sack ++ ([12]; oral 6.25 mg/kg): 3; Infectious index Right air sack +++ ([12]; oral 6.25 mg/kg): 1; Infectious index Right air sack - ([12]; oral 6.25 mg/kg): 0; Infectious index Left air sack + ([12]; oral 12.5 mg/kg): 0; Infectious index Left air sack ++ ([12]; oral 12.5 mg/kg): 0; Infectious index Left air sack +++ ([12]; oral 12.5 mg/kg): 0; Infectious index Left air sack - ([12]; oral 12.5 mg/kg): 5; Infectious index Right air sack + ([12]; oral 12.5 mg/kg): 2; Infectious index Right air sack ++ ([12]; oral 12.5 mg/kg): 1; Infectious index Right air sack +++ ([12]; oral 12.5 mg/kg): 2; Infectious index Right air sack - ([12]; oral 12.5 mg/kg): 0; Number of fowl having air sack lesions ([12]; oral 3.13 mg/kg): 4; Number of fowl having air sack lesions ([12]; oral 6.25 mg/kg): 5; Number of fowl having air sack lesions ([12]; oral 12.5 mg/kg): 5
